Laboratory results: patent US9107852B2, “Uses of agonists of delta opioid receptor in cosmetic and dermocosmetic field” (Induchem Holding AG, priority 2012, dated 2015)
Ends that are not written are not given here.

Tests used:
[1] = target: T1, delta2 opioid receptor (Mus musculus, UniProt P32300); assay: Agonist effect at the delta2 opioid receptor (DOP), cell impedance; assay type: cell-based
T1 construct: host or cells: unnamed cells 'bearing the delta2 opioid receptor'
Procedure: Frozen spinach leaves were thawed and disrupted in fine particles a blender. This juice was further treated with ultrasounds to disrupt cells and proteins were recovered by acidic precipitation. These proteins were then digested by several enzymes, including pepsin and papain. The hydrolysate was purified (ultrafiltration), fractionated and stored before testing. Meanwhile, synthetic peptides were ordered from a manufacturer. The peptides and the hydrolysates were tested on cells bearing the delta2 opioid receptor and cell impedance was measured to evaluate the binding activity of the tested compounds (Law and Loh, 1993).
The EC50 values (concentration producing a half-maximal specific response) and IC50 values (concentration causing a half-maximal inhibition of the control specific agonist response) were determined by non-linear regression analysis of the concentration-response curves generated with mean replicate values using Hill equation curve fitting (Y=D+[(A D)/(1+(C/C50)nH)], where Y=specific response, D=minimum specific response, A=maximum specific response, C=compound concentration, and C50=EC50 or IC50, and nH=slope factor).

[2] = test system: opioid receptor delta (DOR); assay: Scoring of DOR1 expression in RHE stimulated with cytokines; assay type: cell-based, human; details: JAK inhibitor I tested at 10 μM
Procedure: In the present study, the effects of a peptide (YPLDLF, SEQ ID No 1) on the expression of opioid receptor delta (DOR) were researched on a reconstructed human epidermis (RHE) model under basal or stimulated conditions. More precisely, the RHE were stimulated by a mix of cytokines (IL-17+OSM+TNF-α) able to induce a strong inflammatory profile and a psoriatic phenotype in keratinocytes.
Reconstructed human epidermis (RHE) of 11 days old was prepared according to a derived method described by Poumay et al. (2004). These RHE were cultivated at 37° C. and 5% of CO2 in a specific maintenance medium.
The RHE treated under basal conditions were placed in assay medium containing or not (non-stimulated control) the peptide solutions and incubated for 54 hours. For inflammatory conditions, the RHE were placed in assay medium containing or not (stimulated control) the peptide solutions or the reference […] at 10 μM) and pre-incubated for 6 hours. The RHE were then stimulated with a mix of cytokines (IL-17+OSM+TNF-α at 3 ng/ml) and incubated for 48 hours. All experimental conditions were performed in n=3.
At the end of incubation, the supernatants were collected and the RHE were washed in phosphate buffered saline solution (PBS) for immunohistofluorescence analysis. […]

[3] = test system: human skin explants; assay: Pro-pigmentation on human skin explants; assay type: cell-based; details: within 6 days, 0.3 and 3 PPM
Procedure: This study aims to explore the pro pigmenting activity of an ingredient (peptide YPLDLF, SEQ ID No 1) on human skin explants maintained in survival.
The activity of the product was evaluated by: • histological expertise of general morphology of the skin after Masson trichrome staining, • a visualization of melanin by a silver impregnation. • Immunostaining of Melan-A
Skin explants with a diameter of 10 mm were prepared from plastic surgery skin sample from a person. The explants were placed in survival in a specific growth medium at 37° C. in a humid atmosphere enriched with 5% CO2.
The peptide solutions (at 0.3 PPM or 3 PPM) were applied topically for 2 hours every day using a filter paper discs presoaked in 30 μl of each solution.
At D0, a T0 lot of the explants were removed and cut in half. One half was fixed in buffered formalin and the other half was frozen at −80° C. […]
The melanin was visualized by silver impregnation according to the technique of Masson Fontana variant. Labeled melanin has been evaluated by microscopic examination.
The expression of melanin in the basal layers, was quantified by image analysis using the software Cell-D.
The cell nuclei were colored with a propidium iodide. Labeled Melan-A has been evaluated by microscopic examination and counting of melanocytes Melan-A positive and the results expressed per centimeter of epidermis.

[4] = percent of control specific agonist response (DPDPE)

T1 sequence (P32300 whole entry): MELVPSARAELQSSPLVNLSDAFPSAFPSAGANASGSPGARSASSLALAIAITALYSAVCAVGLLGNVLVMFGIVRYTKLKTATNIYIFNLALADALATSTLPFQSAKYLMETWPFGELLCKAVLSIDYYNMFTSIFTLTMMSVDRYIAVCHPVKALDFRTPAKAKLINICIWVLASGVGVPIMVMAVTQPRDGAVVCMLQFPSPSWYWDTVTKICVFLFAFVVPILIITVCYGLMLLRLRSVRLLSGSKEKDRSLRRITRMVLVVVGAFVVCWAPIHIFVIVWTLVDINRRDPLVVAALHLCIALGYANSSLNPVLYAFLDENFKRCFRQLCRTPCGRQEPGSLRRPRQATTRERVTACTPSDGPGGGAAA

Substance: YPLDLF [YPLDLF]
- EC50 [1]: 3.9 µM
- A (Hill curve fit parameter) [1, 4]: −8.3
- D (Hill curve fit parameter) [1, 4]: 100.0
- inhibitory effect of the cytokine mix on OPRD1 expression [2]: reversed
- production of pigment (melanin) in human skin [3]: activate in a dose dependent manner
